Counter-ions that a name gives are not always drawn.
Assays:
female Balb/C mice [1] = experiment: Concanavalin (Con) A induced hepatitis in female Balb/C mice; assay type: in vivo; conditions: 10 mg/kg b. wt, oral, 1 hour prior to Con A, blood after 24 hours
Experimental: Con A is often used to prepare experimental animals with high levels of cytotoxic T-lymphocytes, because these cells are involved in the development of viral infections in humans. In this model, animals were administered test compounds orally 1 hour prior to intravenous administration of Con A. Blood samples were collected after 24 hours for determination of Serum glutamic oxaloacetic transaminase (SGOT) and Serum glutamic pyruvic transaminase (SGPT) in Serum.

female Balb/C mice [2] = experiment: TNCB induced contact hypersensitivity in female Balb/c mice; assay type: in vivo; conditions: 10 mg/kg b. wt, oral, 24 h after TNCB challenge
Experimental: Contact hypersensitivity is a simple in vivo assay of cell-mediated immune function. In this procedure, exposure of epidermal cells to exogenous haptens results in a delayed type hypersensitive reaction that can be measured and quantified. Briefly, 7% TNCB solution was applied to the abdominal region of 8 week old Balb/c mice. Ear thickness was measured 7 days after TNCB sensitization. Compounds were administered orally followed by an application of 1% TNCB to inside and outside of ear pinnae. Ear thickness was measured 24 h after TNCB challenge

male Balb/c mice = experiment: Foot paw delayed type hypersensitivity in male Balb/c mice; assay type: in vivo; conditions: 10 mg/kg, daily treatment day 0 to day 10
Experimental: DTH swelling responses can be used to follow the activity of immunosuppressive molecules and/or suppressor T cells in vivo. Intradermal antigen (methylated BSA) injections were given to mice (at base of tail) on day 0 and day 7. Compounds were administered once daily from day 0 to day 10 Methylated BSA was injected into the right hind footpad of animals on day 10. Weight difference induced by antigen was determined by weighing the right and left hind paws 24 h after injection of methylated BSA (day 11).

guinea pigs = experiment: OVA-induced asthma in guinea pigs; assay type: in vivo; conditions: 10 mg/kg b. wt, oral, 1 h before OVA challenge
Experimental: Pulmonary eosinophilia and airway remodelling in conjunction with altered neural control of airway tone and airway epithelial desquamation contributes to Airway Hyper-responsiveness (AHR) in asthma. For determination of eosinophil reduction, animals were sensitized with OVA on d0, d7, and d14 followed by another round (0.1% w/v) through inhalation on d19 & d20. Compounds were administered orally 1 h before OVA challenge (0.3%). BAL fluid was collected on d22 for differential count and cytokine estimation. For determination of change in respiratory parameters, animals were subjected to whole body plethysmography immediately after ova challenge.

male DBA/1 Ola HSD mice = experiment: Collagen-induced arthritis in male DBA/1 Ola HSD mice; assay type: in vivo; conditions: 10 mg/kg b. wt, daily, po, qd
Experimental: Collagen induced arthritis in rodent models have been widely used to illustrate and understand the development of the disease besides serving as a surrogate for validation of therapeutic targets for human rheumatoid arthritis. Mice were anesthetized with Isoflurane and given 150 μl of Bovine Type II collagen in Freund's complete adjuvant injections (day 0 and day 21). Treatment was initiated on study day 0 and continued once daily, every day (po, qd). Starting on day 18, clinical scores were given daily for each of the paws (right front, left front, right rear, left rear) and continued till the day of sacrifice (day 34). Daily administration of the test compound (Example 69) at 10 mg/kg b. wt alleviated arthritic symptoms, disease progression, and incidence by 30% compared to the control animals.

CRAC channels = CRAC channels (Homo sapiens (Human), UniProt Q96D31); experiment: In-vitro CRAC channel inhibition assay in Jurkat cells (thapsigargin-induced calcium influx); assay type: cell-based; conditions: Jurkat cells, thapsigargin-induced calcium influx
Experimental: Inhibition of CRAC channels was determined following thapsigargin (Sigma, Cat # T9033) induced endoplasmic calcium release in Jurkat cells. […] Cells were centrifuged and re-suspended in equal volumes ° f Ca^2+ and Mg^2+ free Hanks buffer and Fluo-8 NW dye (ABD Bioquest, Inc., Sunnyvale, Calif.) loading solution at 2×10^5 cells/100 μl/well in 96-well black plate. Plate is incubated at 37° C., 5% CO2 for 30 min followed by further 15 min incubation at room temperature. Test compounds (DMSO stocks diluted in Ca^2+ and Mg^2+ free Hanks buffer) at desired concentrations were added to the wells and incubated for […] Thapsigargin (1 μM final concentration) was added to the wells and incubated for 15 min to inhibit the Sarco-endoplasmic reticulum Ca^2+ ATPase pump thereby depleting endoplasmic calcium and raising cytosolic calcium concentrations. Store-operated calcium entry was initiated by adding extracellular Ca^2+ to a final concentration of 1.8 mM. Fluorescence was monitored over […] on a plate reader (BMG Labtech., Germany) with excitation at 485 nm and an emission wavelength at 520 nm. Data were analyzed using GraphPad Prism. IC50 for each compound was determined based on the percent inhibition of thapsigargin-induced calcium influx into cells.

[3] = molecular target: CRAC channels over the voltage operated channels (VOC) (Homo sapiens (Human), UniProt Q96D31); conditions: Yonetoky et al.; cited from earlier work
Chain of CRAC channels over the voltage operated channels (VOC) (Q96D31 whole entry): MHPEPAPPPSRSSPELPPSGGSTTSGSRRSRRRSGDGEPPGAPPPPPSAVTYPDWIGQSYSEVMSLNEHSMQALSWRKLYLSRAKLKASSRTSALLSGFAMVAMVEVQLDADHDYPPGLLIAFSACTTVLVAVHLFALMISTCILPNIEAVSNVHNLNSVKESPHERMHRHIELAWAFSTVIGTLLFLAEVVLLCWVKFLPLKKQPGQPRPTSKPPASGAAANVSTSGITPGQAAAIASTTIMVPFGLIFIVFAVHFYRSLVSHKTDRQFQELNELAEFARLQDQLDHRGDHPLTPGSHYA

Chain of CRAC channels (Q96D31 whole entry): as above

Row | Molecule | IC50 (CRAC channels) | other results
1 | Cc1ncc(C(=O)Nc2ccc(-n3nc(C(F)(F)F)cc3C3CC3)cc2)c(C)n1 [Example 69, N-{4-[5-cyclopropyl-3-(trifluoromethyl)-1H-pyrazol-1-yl]phenyl}-2,4-dimethylpyrimidine-5-carboxamide] | – | reduction in serum SGOT & SGPT (female Balb/C mice [1]): > 85%; reduction in ear inflammation (female Balb/C mice [2]): > 70%; reduction in antigen-induced paw inflammation (male Balb/c mice): > 40%; reduction in blood eosinophils (guinea pigs): > 70%; respiration (whole body plethysmography) (guinea pigs; plethysmography immediately after ova challenge): improvement in respiration; alleviation of arthritic symptoms, disease progression, and incidence compared to control animals (male DBA/1 Ola HSD mice): 30%
2 | Cc1ncncc1C(=O)Nc1ccc(-n2nc(C(F)(F)F)cc2C2CC2)c(F)c1 [Example 93, N-{4-[5-cyclopropyl-3-(trifluoromethyl)-1H-pyrazol-1-yl]-3-fluorophenyl}-4-methylpyrimidine-5-carboxamide] | 81.2 nM | –
3 | Cc1ncncc1NC(=O)Nc1ccc(-n2nc(C(F)(F)F)cc2C2CC2)c(F)c1 [Example 97, 1-{4-[5-cyclopropyl-3-(trifluoromethyl)-1H-pyrazol-1-yl]-3-fluorophenyl}-3-(4-methylpyrimidin-5-yl)urea] | 600 nM | –
4 | O=C(Nc1c(F)cccc1F)c1ccc(-n2nc(C(F)(F)F)cc2C2CC2)c(F)c1 [Example 100, 4-[5-cyclopropyl-3-(trifluoromethyl)-1H-pyrazol-1-yl]-N-(2,6-difluorophenyl)-3-fluorobenzamide] | 99.7 nM | –
5 | Cc1nnsc1C(=O)Nc1ccc(-n2nc(C(F)(F)F)cc2C2CC2)nc1 [Example 101, N-{6-[5-cyclopropyl-3-(trifluoromethyl)-1H-pyrazol-1-yl]pyridin-3-yl}-4-methyl-1,2,3-thiadiazole-5-carboxamide] | 150 nM | –
6 | Cc1ccccc1C(=O)Nc1ccc(-n2nc(C(F)(F)F)cc2C2CC2)nc1 [Example 104, N-{6-[5-cyclopropyl-3-(trifluoromethyl)-1H-pyrazol-1-yl]pyridin-3-yl}-2-methylbenzamide] | 23 nM | –
7 | O=C(Nc1ccc(-n2nc(C(F)(F)F)cc2C2CC2)nc1)c1ccccc1F [Example 106, N-(6-(5-cyclopropyl-3-(trifluoromethyl)-1H-pyrazol-1-yl)pyridin-3-yl)-2-fluorobenzamide] | 60 nM | –
8 | O=C(Nc1ccc(-n2nc(C(F)(F)F)cc2C2CC2)nc1)c1cccc(F)c1F [Example 107, N-{6-[5-cyclopropyl-3-(trifluoromethyl)-1H-pyrazol-1-yl]pyridin-3-yl}-2,3-difluorobenzamide] | 70.3 nM | –
9 | O=C(Nc1ccc(-n2nc(C(F)(F)F)cc2C2CC2)nc1)c1c(F)cccc1F [Example 108, N-{6-[5-cyclopropyl-3-(trifluoromethyl)-1H-pyrazol-1-yl]pyridin-3-yl}-2,6-difluorobenzamide] | 50.6 nM | –
10 | O=C(Nc1ccc(-n2nc(C(F)(F)F)cc2C2CC2)nc1)c1cccnc1 [Example 111, N-{6-[5-cyclopropyl-3-(trifluoromethyl)-1H-pyrazol-1-yl]pyridin-3-yl}nicotinamide hydrochloride] | 47.2 nM | –
11 | Cc1ncccc1C(=O)Nc1ccc(-n2nc(C(F)(F)F)cc2C2CC2)nc1.Cl [Example 112, N-{6-[5-cyclopropyl-3-(trifluoromethyl)-1H-pyrazol-1-yl]pyridin-3-yl}-2-methyl nicotinamide hydrochloride] | – | % inhibition (1 uM) (CRAC channels): 36.44%
12 | O=C(Nc1ccc(-n2nc(C(F)(F)F)cc2C2CC2)nc1)c1ccncc1 [Example 113, N-{6-[5-cyclopropyl-3-(trifluoromethyl)-1H-pyrazol-1-yl]pyridin-3-yl}isonicotinamide hydrochloride] | 62.6 nM | –
13 | O=C(Nc1ccc(-n2nc(C(F)(F)F)cc2C2CC2)nc1)c1ccncc1F [Example 114, N-{6-[5-cyclopropyl-3-(trifluoromethyl)-1H-pyrazol-1-yl]pyridin-3-yl}-3-fluoroisonicotinamide] | 37.6 nM | –
14 | O=C(Nc1c(F)cccc1F)c1ccc(-n2nc(C(F)(F)F)cc2C2CC2)nc1 [Example 122, 6-[5-cyclopropyl-3-(trifluoromethyl)-1H-pyrazol-1-yl]-N-(2,6-difluorophenyl) nicotinamide] | 72.1 nM | –
15 | O=C(Nc1cnc(-n2nc(C(F)(F)F)cc2C2CC2)nc1)c1c(F)cccc1F [Example 124, N-{2-[5-cyclopropyl-3-(trifluoromethyl)-1H-pyrazol-1-yl]pyrimidin-5-yl}-2,6-difluorobenzamide] | 295 nM | –
16 | Cc1ncsc1C(=O)Nc1ccc(-n2nc(C(F)(F)F)cc2CF)cc1 [Example 125, N-{4-[5-(fluoromethyl)-3-(trifluoromethyl)-1H-pyrazol-1-yl]phenyl}-4-methylthiazole-5-carboxamide] | 373 nM | –
17 | Cc1ncsc1C(=O)Nc1ccc(-n2nc(C(F)(F)F)cc2C(F)F)cc1 [Example 126, N-{4-[5-(difluoromethyl)-3-(trifluoromethyl)-1H-pyrazol-1-yl]phenyl}-4-methyl thiazole-5-carboxamide] | 52.6 nM | –
18 | Cc1nnsc1C(=O)Nc1ccc(-n2nc(C(F)(F)F)cc2C(F)(F)F)cc1 [YM-58483] | – | selective index (CRAC channels over VOC) [3]: 31
19 | N-{4-[3-cyclopropyl-5-(difluoromethyl)-1H-pyrazol-1-yl]-3-fluorophenyl}-2,6-difluorobenzamide and N-{4-[5-cyclopropyl-3-(difluoromethyl)-1H-pyrazol-1-yl]-3-fluorophenyl}-2,6-difluorobenzamide [Example 135] | – | % inhibition (1 uM) (CRAC channels): 100%
